# Measurements as given in US10314809B2, “Application of derivative of clostridium ghonii” (SHANDONG XINCHUANG BIOTECHNOLOGY CO., LTD., priority 2014, dated 2019).
# Test system: non-small cell lung carcinoma A549 cells
# Assay: Example 2: in-vivo test of spores combined with chemotherapy medicines in A549 tumor-bearing nude mice
# Set-up: species or system Balb/c-nu/nu nude mice
# Experimental: The non-small cell lung carcinoma A549 cells were injected into the subcutaneous positions at femoral lateral parts of right backs of female Balb/c-nu/nu nude mice (5 weeks old, 20 g) by subcutaneous injection. The in-vivo test was performed when the tumor volume was 300 mm^3.
# Control group: n=15, and 0.2 ml of PBS buffer was intravenously injected to the tails;
# Docetaxel group: n=15, Docetaxel was intravenously injected to the tails on the 4th day and 11th day, the dose was 20 mg/(kg·body weight), and the application dose of Docetaxel was the optimal application dose.
# MW-DCG-HNCv-18 spore group: n=15, spores were intravenously injected to the tails, and the dose was 3×10^8/(kg·body weight).
# (§1) MW-DCG-HNCv-18 spore+Cetuximab group: n=15, MW-DCG-HNCv-18 spores were intravenously injected to the tails on the first day, and the dose was 3×10^8/(kg·body weight); Cetuximab was intravenously injected to the tails on the 4th day and 11th day, the dose was 70 mg/(kg·body weight), and the application dose of Cetuximab was the optimal application dose.
# as §1, with “weight); Adriacin” for “weight); Cetuximab”, “was 10” for “was 70”, “of Adriacin” for “of Cetuximab”
# MW-DCG-HNCv-18 spore+Docetaxel group: n=15, MW-DCG-HNCv-18 spores were intravenously injected to the tails on the first day, and the dose was 3×10^8/(kg·body weight); Docetaxel was intravenously injected to the tails on the 4th day and 11th day, and the dose was 20 mg/(kg·body weight).
# C. novyi-NT spore+Docetaxel group: n=15, C. novyi-NT spores were intravenously injected to the tails on the first day, and the dose was 3×10^8/(kg·body weight);
# Docetaxel was intravenously injected to the tails on the 4th day and 11th day, and the dose was 20 mg/(kg·body weight).
# The major diameter (a) and transverse diameter (b) of the transplanted tumors of the nude mice were measured with a vernier caliper, 3 to 4 times a week, the tumor volume of each group was calculated, and the anti-tumor effects of the strains were observed dynamically. At the same time, the body weight, feeding, drinking, mental state, behavior, fur color, excretion and death situations of the tumor-bearing mice were observed and recorded.
# The tumor volume (V=½×a×b^2) was calculated according to the measured major diameter and transverse diameter data of the tumors, the curve was drawn and the tumors were observed dynamically. […]
# The overall survival time of the tumor-bearing mice: the nude mice in each group after processing were fed until natural death, and the survival time was calculated.
# [1] = spores 3×10^8/(kg·body weight) i.v. day 1, drug i.v. 4th and 11th day (Docetaxel 20, Cetuximab 70, Adriacin 10 mg/kg)
smiles,measurement,setting,value
CC(=O)O[C@@]12CO[C@@H]1C[C@H](O)[C@@]1(C)C(=O)[C@H](O)C3=C(C)[C@@H](OC(=O)[C@H](O)[C@@H](NC(=O)OC(C)(C)C)c4ccccc4)C[C@@](O)([C@@H](OC(=O)c4ccccc4)[C@H]21)C3(C)C [Docetaxel],Cure rate,"animals with tumor completely removed/total, spores 3×10^8/kg day 1, drug i.v. 4th and 11th day",0%
same,Necrosis rate,[1],22.2%
same,Tumor inhibition rate,[1],55.9%
same,mean survival days,"spores 3×10^8/kg day 1, drug i.v. 4th and 11th day, fed until natural death",35.5 days
